Assay results taken from PubChem BioAssay AID1963842 (Molecular Pharmacology Branch, DTP, NCI, 2024).

System: 677734-321-R-J1-PDC complex spheroid viability
Assay: Anticancer human tumor 677734-321-R-J1-PDC patient-derived soft tissue sarcoma cell line growth inhibition [POLQ]
Details: for IC50: curve of first compound; for viability, T/C: stronger effect = lower value
In short: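 PDC + HUVEC + MSC complex spheroids; POLQ inhibitors ± partner drugs; top conc. at/near clinical Cmax, else 10 microM (SN-38 1 microM), half-log dilutions; 37 degrees C, 5% CO2.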

[1] = second compound 0.0316 µM, first compound 0.0316 µM
[2] = second compound 0.0316 µM, first compound 0.1 µM
[3] = second compound 0.0316 µM, first compound 0.316 µM
[4] = second compound 0.0316 µM, first compound 1 µM
[5] = second compound 0.0316 µM, first compound 3.16 µM
[6] = second compound 0.0316 µM, first compound 10 µM
[7] = second compound 0.1 µM, first compound 0.0316 µM
[8] = second compound 0.1 µM, first compound 0.1 µM
[9] = second compound 0.1 µM, first compound 0.316 µM
[10] = second compound 0.1 µM, first compound 1 µM
[11] = second compound 0.1 µM, first compound 3.16 µM
[12] = second compound 0.1 µM, first compound 10 µM
[13] = second compound 0.316 µM, first compound 0.0316 µM
[14] = second compound 0.316 µM, first compound 0.1 µM
[15] = second compound 0.316 µM, first compound 0.316 µM
[16] = second compound 0.316 µM, first compound 1 µM
[17] = second compound 0.316 µM, first compound 3.16 µM
[18] = second compound 0.316 µM, first compound 10 µM
[19] = second compound 1 µM, first compound 0.0316 µM
[20] = second compound 1 µM, first compound 0.1 µM
[21] = second compound 1 µM, first compound 0.316 µM
[22] = second compound 1 µM, first compound 1 µM
[23] = second compound 1 µM, first compound 3.16 µM
[24] = second compound 1 µM, first compound 10 µM
[25] = second compound 3.16 µM, first compound 0.0316 µM
[26] = second compound 3.16 µM, first compound 0.1 µM
[27] = second compound 3.16 µM, first compound 0.316 µM
[28] = second compound 3.16 µM, first compound 1 µM
[29] = second compound 3.16 µM, first compound 3.16 µM
[30] = second compound 3.16 µM, first compound 10 µM
[31] = second compound 10 µM, first compound 0.0316 µM
[32] = second compound 10 µM, first compound 0.1 µM
[33] = second compound 10 µM, first compound 0.316 µM
[34] = second compound 10 µM, first compound 1 µM
[35] = second compound 10 µM, first compound 3.16 µM
[36] = second compound 10 µM, first compound 10 µM
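Also: spheroids exposed to compounds for one week.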
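For viability, T/C in this document: 100% = vehicle DMSO treated spheroids.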

SMILES: C=CC(=O)N1CCN(c2nc(=O)n(-c3c(C)ccnc3C(C)C)c3nc(-c4c(O)cccc4F)c(F)cc23)C(C)C1 (stereo not given) + COC1C(OC(N)=O)C(O)C(Oc2ccc3c(O)c(NC(=O)c4ccc(O)c(CC=C(C)C)c4)c(=O)oc3c2C)OC1(C)C
- IC50 (second compound 0.0316 µM): > 10 µM
- IC50 (second compound 0.1 µM): > 10 µM
- IC50 (second compound 0.316 µM): > 10 µM
- IC50 (second compound 1 µM): > 10 µM
- IC50 (second compound 3.16 µM): > 10 µM
- IC50 (second compound 10 µM): > 10 µM
- viability, T/C [1]: 109%
- viability, T/C [2]: 92.4%
- viability, T/C [3]: 102%
- viability, T/C [4]: 97.1%
- viability, T/C [5]: 104%
- viability, T/C [6]: 86.4%
- viability, T/C [7]: 102%
- viability, T/C [8]: 104%
- viability, T/C [9]: 103%
- viability, T/C [10]: 102%
- viability, T/C [11]: 99.9%
- viability, T/C [12]: 81.7%
- viability, T/C [13]: 102%
- viability, T/C [14]: 97.3%
- viability, T/C [15]: 106%
- viability, T/C [16]: 101%
- viability, T/C [17]: 107%
- viability, T/C [18]: 84.8%
- viability, T/C [19]: 98.4%
- viability, T/C [20]: 99.3%
- viability, T/C [21]: 104%
- viability, T/C [22]: 113%
- viability, T/C [23]: 105%
- viability, T/C [24]: 89.2%
- viability, T/C [25]: 102%
- viability, T/C [26]: 101%
- viability, T/C [27]: 105%
- viability, T/C [28]: 106%
- viability, T/C [29]: 106%
- viability, T/C [30]: 80.7%
- viability, T/C [31]: 107%
- viability, T/C [32]: 103%
- viability, T/C [33]: 96%
- viability, T/C [34]: 106%
- viability, T/C [35]: 95.8%
- viability, T/C [36]: 86.7%

SMILES: CC1COCCN1c1cc(-c2ccnn2C)c2ccnc(-c3ccn[nH]3)c2n1 (stereo not given) + COC1C(OC(N)=O)C(O)C(Oc2ccc3c(O)c(NC(=O)c4ccc(O)c(CC=C(C)C)c4)c(=O)oc3c2C)OC1(C)C
- IC50 (second compound 0.0316 µM): 0.153 µM
- IC50 (second compound 0.1 µM): 0.145 µM
- IC50 (second compound 0.316 µM): 0.142 µM
- IC50 (second compound 1 µM): 0.146 µM
- IC50 (second compound 3.16 µM): 0.145 µM
- IC50 (second compound 10 µM): 0.127 µM
- viability, T/C [1]: 98.5%
- viability, T/C [2]: 65.1%
- viability, T/C [3]: 23.7%
- viability, T/C [4]: 15.9%
- viability, T/C [5]: 6.88%
- viability, T/C [6]: 15.2%
- viability, T/C [7]: 97.5%
- viability, T/C [8]: 61.8%
- viability, T/C [9]: 25.2%
- viability, T/C [10]: 16.6%
- viability, T/C [11]: 8.53%
- viability, T/C [12]: 17.1%
- viability, T/C [13]: 95.8%
- viability, T/C [14]: 61.8%
- viability, T/C [15]: 22.7%
- viability, T/C [16]: 19.8%
- viability, T/C [17]: 6.32%
- viability, T/C [18]: 15.3%
- viability, T/C [19]: 110%
- viability, T/C [20]: 62.7%
- viability, T/C [21]: 23.8%
- viability, T/C [22]: 16.6%
- viability, T/C [23]: 7.91%
- viability, T/C [24]: 16.6%
- viability, T/C [25]: 102%
- viability, T/C [26]: 61.2%
- viability, T/C [27]: 26.3%
- viability, T/C [28]: 16.6%
- viability, T/C [29]: 6.66%
- viability, T/C [30]: 14.4%
- viability, T/C [31]: 98.1%
- viability, T/C [32]: 57.9%
- viability, T/C [33]: 20.1%
- viability, T/C [34]: 17.1%
- viability, T/C [35]: 8.68%
- viability, T/C [36]: 16.7%

SMILES: CCc1cc2c(N3CCc4c(cc(Cn5ccnc5)cc4-c4cn(C)nc4C(F)(F)F)C3=O)cc(C)nc2c(OC)n1 + COC1C(OC(N)=O)C(O)C(Oc2ccc3c(O)c(NC(=O)c4ccc(O)c(CC=C(C)C)c4)c(=O)oc3c2C)OC1(C)C
- IC50 (second compound 0.0316 µM): > 10 µM
- IC50 (second compound 0.1 µM): > 10 µM
- IC50 (second compound 0.316 µM): > 10 µM
- IC50 (second compound 1 µM): > 10 µM
- IC50 (second compound 3.16 µM): > 10 µM
- IC50 (second compound 10 µM): > 10 µM
- viability, T/C [1]: 111%
- viability, T/C [2]: 110%
- viability, T/C [3]: 94.5%
- viability, T/C [4]: 98.2%
- viability, T/C [5]: 77.7%
- viability, T/C [6]: 53.4%
- viability, T/C [7]: 106%
- viability, T/C [8]: 111%
- viability, T/C [9]: 97.7%
- viability, T/C [10]: 98.8%
- viability, T/C [11]: 73.7%
- viability, T/C [12]: 59.3%
- viability, T/C [13]: 112%
- viability, T/C [14]: 108%
- viability, T/C [15]: 98.7%
- viability, T/C [16]: 96.9%
- viability, T/C [17]: 79.5%
- viability, T/C [18]: 49.4%
- viability, T/C [19]: 124%
- viability, T/C [20]: 105%
- viability, T/C [21]: 108%
- viability, T/C [22]: 93.4%
- viability, T/C [23]: 75.5%
- viability, T/C [24]: 52.9%
- viability, T/C [25]: 109%
- viability, T/C [26]: 111%
- viability, T/C [27]: 103%
- viability, T/C [28]: 98.2%
- viability, T/C [29]: 82%
- viability, T/C [30]: 54.4%
- viability, T/C [31]: 108%
- viability, T/C [32]: 110%
- viability, T/C [33]: 98.4%
- viability, T/C [34]: 91.4%
- viability, T/C [35]: 67.3%
- viability, T/C [36]: 50.8%

SMILES: COc1cc2cc(C(=O)CCC(=O)O)sc2cc1OC + COC1C(OC(N)=O)C(O)C(Oc2ccc3c(O)c(NC(=O)c4ccc(O)c(CC=C(C)C)c4)c(=O)oc3c2C)OC1(C)C
- IC50 (second compound 0.0316 µM): > 10 µM
- IC50 (second compound 0.1 µM): > 10 µM
- IC50 (second compound 0.316 µM): > 10 µM
- IC50 (second compound 1 µM): > 10 µM
- IC50 (second compound 3.16 µM): > 10 µM
- IC50 (second compound 10 µM): > 10 µM
- viability, T/C [1]: 104%
- viability, T/C [2]: 99.5%
- viability, T/C [3]: 103%
- viability, T/C [4]: 96.9%
- viability, T/C [5]: 105%
- viability, T/C [6]: 102%
- viability, T/C [7]: 110%
- viability, T/C [8]: 99.6%
- viability, T/C [9]: 97.5%
- viability, T/C [10]: 107%
- viability, T/C [11]: 106%
- viability, T/C [12]: 102%
- viability, T/C [13]: 113%
- viability, T/C [14]: 106%
- viability, T/C [15]: 98.8%
- viability, T/C [16]: 102%
- viability, T/C [17]: 111%
- viability, T/C [18]: 102%
- viability, T/C [19]: 109%
- viability, T/C [20]: 102%
- viability, T/C [21]: 104%
- viability, T/C [22]: 109%
- viability, T/C [23]: 105%
- viability, T/C [24]: 102%
- viability, T/C [25]: 108%
- viability, T/C [26]: 104%
- viability, T/C [27]: 114%
- viability, T/C [28]: 110%
- viability, T/C [29]: 109%
- viability, T/C [30]: 103%
- viability, T/C [31]: 112%
- viability, T/C [32]: 101%
- viability, T/C [33]: 109%
- viability, T/C [34]: 99%
- viability, T/C [35]: 111%
- viability, T/C [36]: 111%

SMILES: COc1ccc([C@@H](O)c2cc(-c3ncnc4cc(N5CCOCC5)ccc34)c(F)cc2Cl)nn1 + COC1C(OC(N)=O)C(O)C(Oc2ccc3c(O)c(NC(=O)c4ccc(O)c(CC=C(C)C)c4)c(=O)oc3c2C)OC1(C)C
- IC50 (second compound 0.0316 µM): > 10 µM
- IC50 (second compound 0.1 µM): 9.81 µM
- IC50 (second compound 0.316 µM): 9.58 µM
- IC50 (second compound 1 µM): > 10 µM
- IC50 (second compound 3.16 µM): > 10 µM
- IC50 (second compound 10 µM): > 10 µM
- viability, T/C [1]: 106%
- viability, T/C [2]: 112%
- viability, T/C [3]: 99.7%
- viability, T/C [4]: 105%
- viability, T/C [5]: 82.1%
- viability, T/C [6]: 56.9%
- viability, T/C [7]: 112%
- viability, T/C [8]: 107%
- viability, T/C [9]: 100%
- viability, T/C [10]: 98.2%
- viability, T/C [11]: 83.8%
- viability, T/C [12]: 48.8%
- viability, T/C [13]: 110%
- viability, T/C [14]: 104%
- viability, T/C [15]: 104%
- viability, T/C [16]: 98.4%
- viability, T/C [17]: 82.5%
- viability, T/C [18]: 48.6%
- viability, T/C [19]: 111%
- viability, T/C [20]: 102%
- viability, T/C [21]: 97.3%
- viability, T/C [22]: 100%
- viability, T/C [23]: 79.4%
- viability, T/C [24]: 52.5%
- viability, T/C [25]: 107%
- viability, T/C [26]: 106%
- viability, T/C [27]: 106%
- viability, T/C [28]: 93.1%
- viability, T/C [29]: 79.5%
- viability, T/C [30]: 56.1%
- viability, T/C [31]: 111%
- viability, T/C [32]: 105%
- viability, T/C [33]: 104%
- viability, T/C [34]: 108%
- viability, T/C [35]: 85.1%
- viability, T/C [36]: 50.9%
